Measured values from patent US20090176817A1, “Method of Treatment of Diarrhea-Predominant Irritable Bowel Syndrome in a Subject” (priority 2005, published 2009).

Key:
clinical = conditions: human, in vivo, po
Procedure: Two randomized, double-blind, placebo controlled, rising dose, crossover studies evaluated the single-dose pharmacokinetics of oral cilansetron over a 4 mg to 64 mg dose range. In one study, 24 male subjects (aged 21-36 years) received, at intervals of […], single oral doses of 4, 8, and 16 mg cilansetron in ascending order and a randomized placebo. In the other study, 24 male subjects received, at intervals of ≧1 week, single oral doses of 16, 32, and 64 mg cilansetron in ascending order and a randomized placebo. All doses were administered under fasted conditions. […] Renal excretion of cilansetron was negligible across all doses, with undetectable or very low amounts (<1% of the dose) excreted unchanged in urine.
Data for the evaluation of dose proportionality of oral cilansetron is available from three studies which have evaluated the pharmacokinetics of single doses over a 2 mg to 64 mg dose range. Two randomized, double-blind, placebo controlled, rising dose, crossover studies, in 24 male subjects each, evaluated the single dose pharmacokinetics of oral cilansetron (capsules) over a 4-16 mg and 16-64 mg dose range, respectively. In each study, subjects received, at intervals of ≧1 week, single oral doses of cilansetron in ascending order and a randomized placebo. All doses were administered under fasted conditions. A third open-label, randomized, parallel-group study in 36 male and female subjects, evaluated the single dose pharmacokinetics of a cilansetron 2 mg tablet administered under fed conditions. FIG. 16 to FIG. 19 present box plots of cilansetron AUC(0-inf) and Cmax from these three studies (males only), and corresponding dose-normalized values (normalized to a 1 mg dose). […] Table 2.7.2.3.14 presents descriptive statistics of cilansetron dose-normalized AUC and Cmax in these studies, and the results of statistical comparisons between doses.

healthy subjects = experiment: Study K.241.5009: esophageal motility; format: in vivo, human; conditions: mean
Procedure: The effect of cilansetron on esophageal motility was evaluated in a randomized, double-blind, placebo-controlled, 3-way crossover study in 12 male healthy subjects (ITT population), aged 32-62 years. Subjects received placebo, cilansetron 4 mg, or cilansetron 8 mg administered orally TID for 7 days during each of the 3 periods, with a 7-day washout between periods. Before conduct of esophageal distension tests using an intraesophageal balloon, primary esophageal motility was induced by at least 5 wet swallows of 5 mL water and […] manometrically registered. Amplitude and duration of esophageal contractions were measured in 3 channels proximal and distal to the balloon and the velocity of propagation of contractions was […] measured over the 2 inter-channel intervals. […] For velocity of propagation, a slight trend towards […] reduced velocity with increasing cilansetron dose was found in the 7-2 cm interval but not in the 17-7 cm interval, and there was no effects seen on onset in either interval.

[1] = system: diarrhea-predominant IBS subjects; experiment: Study S241.3.009: safety; format: in vivo, human; parameters: Incidence of bilirubin increase: dose or concentration left out as unconfirmed; conditions: for Constipation: human, 26 weeks
Text: The primary efficacy parameter was the overall response rate for IBS symptoms, based on the weekly question concerning adequate relief of IBS symptoms (abdominal pain/discomfort, abnormal bowel habits) over the 26 weeks period. A responder was a subject who responded “yes” at least 50% of the time during his/her treatment period, with minimum treatment duration of four weeks. The two main secondary efficacy parameters were overall responder rate based on the weekly question on adequate relief of abdominal pain/discomfort and abnormal bowel habits during the 26-week treatment period. The onset of action of cilansetron was also examined using daily diary data (stool frequency, and ratings of urgency and severity) during the initial 8 weeks of trial participation. An additional key secondary efficacy parameter was the number of months (one month equals four weeks) up to six months (24-weeks) that a subject was a responder for IBS symptoms, where a responder was defined as a subject who answered the weekly question with “yes” at least twice for that month. The responder rate for the weekly diary questions on adequate relief at each month and all months, the adequate relief rate, the number of subjects with adequate relief by week, daily diary questions, IBS-QOL scores, and the interruption of activities were also assessed. Safety was evaluated by physical examination, ECG, vital signs, laboratory evaluations, concomitant medications, and AEs.

[2] = channel 2 cm, 4 mg TID oral 7 days
[3] = channel 2 cm, 8 mg TID oral 7 days
[4] = channel 7 cm, 4 mg TID oral 7 days
[5] = channel 7 cm, 8 mg TID oral 7 days
[6] = channel 17 cm, 4 mg TID oral 7 days
[7] = channel 17 cm, 8 mg TID oral 7 days
[8] = inter-channel interval 7-2 cm, 4 mg TID oral 7 days
[9] = inter-channel interval 7-2 cm, 8 mg TID oral 7 days
[10] = inter-channel interval 17-7 cm, 4 mg TID oral 7 days
[11] = inter-channel interval 17-7 cm, 8 mg TID oral 7 days

## Cc1nccn1C[C@H]1CCc2c(c3cccc4c3n2CCC4)C1=O [Cilansetron, (R)-(−)-4,5,6,8,9,10-hexahydro-10-[(2-methyl-1H-imidazol-1-yl)methyl]-11H-pyrido-[3,2,1-jk]-carbazol-11-one]
clinical; 32 mg
  CL/F: 2487 (79) mL/min
clinical; 64 mg
  CL/F: 1910 (60) mL/min
clinical; male
  DN-AUC(0-inf) ratio 32 mg/16 mg: 127%
  DN-AUC(0-inf) ratio 64 mg/16 mg: 158%
  DN-AUC(0-inf) ratio 64 mg/32 mg: 125%
  DN-AUC(0-last) ratio 32 mg/16 mg: 132%
  DN-AUC(0-last) ratio 64 mg/16 mg: 168%
  DN-AUC(0-last) ratio 64 mg/32 mg: 127%
  DN-Cmax ratio 32 mg/16 mg: 127%
  DN-Cmax ratio 64 mg/16 mg: 164%
  DN-Cmax ratio 64 mg/32 mg: 129%
clinical; male, 16 mg
  CL renal: 3.39 mL/min
  Tmax: 1 h
clinical; male, 32 mg
  AUC(0-inf): 330 ng·h/mL
  AUC(0-t): 324 ng·h/mL
  CL renal: 5 mL/min
  Cmax: 143 ng/mL
  Tmax: 1 h
  Vd/F: 269 L
  half-life: 76.8 min
clinical; male, 64 mg
  AUC(0-inf): 813 ng·h/mL
  AUC(0-t): 807 ng·h/mL
  CL renal: 4.5 mL/min
  Cmax: 349 ng/mL
  Tmax: 1 h
  Vd/F: 204 L
  half-life: 78 min
Healthy subjects; [2]
  Contraction Force Amplitude, Absolute Values: 88.3 mmHg
  Contraction Force Amplitude, Change from Placebo: −4.2 mmHg
  Contraction Force Duration, Absolute Values: 4.5 s
  Contraction Force Duration, Change from Placebo: -0.0 s
Healthy subjects; [3]
  Contraction Force Amplitude, Absolute Values: 85.5 mmHg
  Contraction Force Amplitude, Change from Placebo: −7.1 mmHg
  Contraction Force Duration, Absolute Values: 5.0 s
  Contraction Force Duration, Change from Placebo: 0.4 s
Healthy subjects; [4]
  Contraction Force Amplitude, Absolute Values: 84.7 mmHg
  Contraction Force Amplitude, Change from Placebo: −3.6 mmHg
  Contraction Force Duration, Absolute Values: 3.7 s
  Contraction Force Duration, Change from Placebo: -0.5 s
Healthy subjects; [5]
  Contraction Force Amplitude, Absolute Values: 85.4 mmHg
  Contraction Force Amplitude, Change from Placebo: −2.8 mmHg
  Contraction Force Duration, Absolute Values: 4.0 s
  Contraction Force Duration, Change from Placebo: -0.2 s
Healthy subjects; [6]
  Contraction Force Amplitude, Absolute Values: 61.5 mmHg
  Contraction Force Amplitude, Change from Placebo: −5.3 mmHg
  Contraction Force Duration, Absolute Values: 3.0 s
  Contraction Force Duration, Change from Placebo: 0.1 s
Healthy subjects; [7]
  Contraction Force Amplitude, Absolute Values: 59.3 mmHg
  Contraction Force Amplitude, Change from Placebo: −7.5 mmHg
  Contraction Force Duration, Absolute Values: 2.9 s
  Contraction Force Duration, Change from Placebo: -0.0 s
Healthy subjects; [8]
  Velocity of Propagation, Onset, Absolute Values: 3.7 cm/sec
  Velocity of Propagation, Onset, Change from Placebo: 0.4 cm/sec
  Velocity of Propagation, Peak, Absolute Values: 3.6 cm/sec
  Velocity of Propagation, Peak, Change from Placebo: −0.2 cm/sec
Healthy subjects; [9]
  Velocity of Propagation, Onset, Absolute Values: 3.5 cm/sec
  Velocity of Propagation, Onset, Change from Placebo: 0.2 cm/sec
  Velocity of Propagation, Peak, Absolute Values: 3.3 cm/sec
  Velocity of Propagation, Peak, Change from Placebo: −0.5 cm/sec
Healthy subjects; [10]
  Velocity of Propagation, Onset, Absolute Values: 2.3 cm/sec
  Velocity of Propagation, Onset, Change from Placebo: 0.0 cm/sec
  Velocity of Propagation, Peak, Absolute Values: 2.8 cm/sec
  Velocity of Propagation, Peak, Change from Placebo: 0.1 cm/sec
Healthy subjects; [11]
  Velocity of Propagation, Onset, Absolute Values: 2.3 cm/sec
  Velocity of Propagation, Onset, Change from Placebo: −0.0 cm/sec
  Velocity of Propagation, Peak, Absolute Values: 2.7 cm/sec
  Velocity of Propagation, Peak, Change from Placebo: 0.0 cm/sec
[1]; 2 mg TID, 401 randomized, S241.3.009
  Number of subjects who died: 0 n (%)
[1]; female, in vivo
  Constipation: 17%
[1]; in vivo
  Abdominal pain aggravated: five
  Incidence of bilirubin increase: 8%
  Rectal hemorrhage: three
  Suspected ischemic colitis: three
[1]; male, in vivo
  Constipation: 7%
